One data set relates to mammals. The conditions noted are these: cited from earlier work. From the text: (§1) A possible alternative solution for control of V. destructor is venom-derived acaricidal peptides. Venomous arachnids such as spiders and scorpions prey on arthropods, including other arachnids[17]–[19]. It is therefore unsurprising that the wide-spectrum insecticidal spider-venom peptide ω-hexatoxin-Hv1a (hereafter Hv1a) is also acaricidal. […] It therefore seems plausible that within the venoms of >53,000 extant spider[23] and >2,800 extant scorpion species, each comprising hundreds to thousands of p ...

For data set [1] the following is noted: cited from earlier work.
Source text: as §1

Another data set deals with honeybees. The settings on record: cited from earlier work.
Source text: as §1

The next data set deals with V. destructor mites. The data set can be described thus: Topical application of synthetic peptides and oxalic acid to V. destructor mites. It is filed as in vivo, Varroa destructor. The conditions noted are these: 3% oxalic acid, positive control. As for the experimental part: An outline of the project discovery pipeline is presented in Supplementary Fig. 1. To identify varroacidal venom peptides, we screened venoms for activity against V. destructor by topical application. Topical tests were performed in several stages. First, whole venom was tested to determine mortality for V. destructor. Hit venoms were then subjected to several fractionation steps to isolate the active compounds. For the initial venom screen, a panel of 50 arthropod venoms (Table 1) were topically applied to V. destructor mites. Venoms were dissolved in 90% acetonitrile (v/v), and a 10 μg venom aliquot was applied per mite (n = 5 mites per venom). The dorsal plate of V. destructor mites (average mass 0.38 mg) was fixed to adhesive tape (ScotchTM 666 3 M; 19 × 32.9 mm, double sided) on microscope slides (ground edges 90° frosted end, 76 × 26 mm). A Nanoject II (Automatic Injector with Glass Capillaries, Drummond Cat.No. 3-000-205 A) was used for topical application of venom and control (90% acetonitrile) solutions. To accelerate solvent evaporation, the total volume of 483 nL was applied in seven aliquots of 69 nL each to the ventral plate of the mites between the posterior pair of legs. Each drop was allowed to dry before applying the next one, with the entire application procedure taking up to 1 h. Mite mortality was determined at various time intervals up to 48 h after the treatment using an Olympus stereomicroscope (SZX10/SZX2 Series). Initially, each mite was examined for movements of the legs, and immobile mites were stimulated with the tip of a wooden toothpick. Detection of static electricity by the mites, a few millimetres before the actual contact with the toothpick, was usually sufficient to trigger movement in mites that were still alive. […] At the later stage of the project, the slides with mites were placed into a self-constructed automated video monitoring system (using a USB camera) that employs an algorithm in OpenCV to subtract images from subsequent frames enabling the detection of changes in pixel intensity due to movements, for example of the extremities. Leg movements were stimulated with an air current applied over the mites at the time of image acquisition to determine mite mortality. The percentage of mite mortality for each venom was calculated at 2, 6 and 24 h, and adjusted by correcting for the mortality of the corresponding control group receiving only 90% acetonitrile.
The same procedure initially used for identifying varroacidal venoms was used for testing the topical activity of sHt1a and sGg1a. The peptides were dissolved in 0.5% Silwet L-77 (v/v), a silicone-based surfactant that is commonly used as a spreading agent for foliar sprays. 0.48 μg of peptide was topically applied to each mite, with n = 5 mites per treatment group. The activity of the sHt1a was confirmed using three cohorts of n = 5 mites, whereas the activity of sGg1a was confirmed using four cohorts of n = 5 mites. As a negative control, an equal volume of 0.5% Silwet (v/v) was topically applied (four cohorts of n = 5 mites), and 3% oxalic acid, a known varroacide used in commercial products[10] was used as positive control (eight cohorts of n = 5 mites). Mite mortality was recorded at 2-hourly intervals between 0 and 48 h after the treatment. For statistical analysis, mite survival data were plotted in Prism 10.0 (GraphPad Software, CA, USA), then a two-way ANOVA followed by Dunnett’s multiple comparisons test was performed, comparing the peptide and oxalic acid treatment against the respective 0.5% Silwet (v/v) control group data.

The source of these data is PMC13233288, “Spider venom peptides Ht1a and Gg1a are toxic to honeybee parasite Varroa destructor by topical application” (npj Drug Discovery, 2026).

Turning to ω-hexatoxin-Hv1a, the activity against mammals entry in the data set with mammals was “inactive”. In addition, the acaricidal activity result in data set [1] is given as “acaricidal”. In addition, the activity against honeybees entry in the data set with honeybees is “inactive”.
With `O=C(O)C(=O)O` [oxalic acid, reference compound], the “time to significant mortality” value in the data set with V. destructor mites (eight cohorts of n = 5 mites) came out at 2 h. Also, the “survival of V. destructor” value in the data set on V. destructor mites (vs 0.5% Silwet group, two-way ANOVA, Dunnett) was “significantly reduced V. destructor survival”.
